Paper PMC9963887, “Towards Radiolabeled EGFR-Specific Peptides: Alternatives to GE11” (Pharmaceuticals, 2023)
Like-named read-outs stand apart in the source and are kept apart here. Where a SMILES comes first, the peptide text is derived from it. Bridges are numbered along the chain shown (N, C = ends). [ ]: non-standard residue; d: D form. The star is where a group is joined. X1 = O=C(O)CN1CCN(CC(=O)O)CCN([C@H](CCC(=O)*)C(=O)O)CC1; PEG6 = NCCOCCOCCOCCOCCOCCOCCC(=O)O

Legend:
[1] = stability towards degradation by human serum peptidases; type: in vitro ADME; conditions: pooled human serum, 37 °C, incubation up to 90 min, intact tracer by radio-HPLC; read-out: Calculated Half-Life in Human Serum
Protocol: For the applicability of radiopeptides, their stability towards degradation by human serum peptidases is of importance as a low stability towards metabolization interferes with successful target visualization. Thus, the stability of the radiopeptides [^68Ga]Ga-1–[^68Ga]Ga-11 against degradation was determined by incubation with commercially available pooled human serum of healthy donors at 37 °C for 0, 15, 30, 45, 60, 75 and 90 min. At these time points, the fraction of the intact radiopeptides was again determined by analytical radio-HPLC, and the serum half-life of each radioligand was calculated.
Determination of the stability of [^68Ga]Ga-1–[^68Ga]Ga-11 towards degradation by human serum peptidases. A sample of the respective radiolabeled peptide (125 µL, 10–30 MBq, pH 7.4) was added to commercially available pooled human serum (500 µL) and warmed to 37 °C. At defined time-points (t = 0, […]), 75 µL of the mixture were added to 75 µL ice-cold ethanol, further cooled on ice for 5 min, and centrifuged at 13,000 rpm (12,100× g) for 90 s. The supernatant was collected, the activity of the supernatant and the precipitate measured, where after the supernatant was analyzed by analytical radio-HPLC and the amount of intact tracer was quantified. Experiments were performed thrice for each radioligand.

[2] = logD(7.4) determination by partition between 1-octanol and phosphate buffer pH 7.4; type: physicochemical
Description: For peptidic radiotracers, hydrophilicity is an important parameter as it can enable the initial assessment of the route by which the radioligand is metabolized and excreted. The commonly determined measure for the hydrophilicity/lipophilicity profile of a radiotracer is the determination of its logD(7.4) value and is investigated by partition experiments between an aqueous phosphate buffer phase at pH 7.4 and 1-octanol. For [^68Ga]Ga-1–[^68Ga]Ga-11, logD(7.4) values of −3.44 ± 0.08 ([^68Ga]Ga-1), −3.51 ± 0.22 ([^68Ga]Ga-2), −3.92 ± 0.09 ([^68Ga]Ga-3), −4.01 ± 0.13 ([^68Ga]Ga-4), −3.91 ± 0.06 ([^68Ga]Ga-5), −3.86 ± 0.11 ([^68Ga]Ga-6), −3.03 ± 0.20 ([^68Ga]Ga-7), −3.16 ± 0.11 ([^68Ga]Ga-8), −2.93 ± 0.08 ([^68Ga]Ga-9), −3.92 ± 0.09 ([^68Ga]Ga-10) and −3.98 ± 0.06 ([^68Ga]Ga-11) were obtained in these partition experiments. This high hydrophilicity of the tracers can be considered beneficial, as it should result in low, non-specific liver accumulation of the agents. This is advantageous with regard to the visualization of malignant liver lesions (especially hepatocellular carcinomas (HCCs) and liver metastases of colon carcinoma), which mostly overexpress the EGFR [46, 47] and, thus, represent an important area of application of an EGFR-specific peptidic radiotracer.
Determination of the logD(7.4) values of [^68Ga]Ga-1–[^68Ga]Ga-11. The aqueous phasepH7.4/1-octanol partition coefficient (logD(7.4)) of the developed radiotracers was determined by addition of a solution of the respective radiolabeled peptide (5 µL, 0.5–2 MBq) to a mixture of 1-octanol (800 µL) and phosphate buffer (0.05 M, pH 7.4, 795 µL). The mixtures were vigorously shaken for 5 min on a mechanical shaker and subsequently centrifuged at 13,000 rpm (12,100× g) for 2 min to achieve complete phase separation. 125 µL of each phase were taken and the amount of radioactivity in each phase was determined by γ-counting. Experiments were performed thrice, each in triplicate.

[3] = 1-octanol / phosphate buffer 0.05 M, read-out: logD(7.4)

half-life [1]	logD [2, 3]	logD [2]	Structure (SMILES)
295.7 ± 2.7 min	-3.44 ± 0.08		CC[C@H](C)[C@H](NC(=O)[C@@H](NC(=O)[C@H](CC(N)=O)NC(=O)[C@H](CCC(N)=O)NC(=O)[C@@H]1CCCN1C(=O)[C@@H](NC(=O)[C@H](Cc1ccc(O)cc1)NC(=O)CNC(=O)[C@H](Cc1ccc(O)cc1)NC(=O)[C@H](Cc1c[nH]c2ccccc12)NC(=O)[C@H](Cc1c[nH]cn1)NC(=O)[C@H](Cc1ccc(O)cc1)NC(=O)CCOCCOCCOCCOCCOCCOCCNC(=O)CC[C@H](C(=O)O)N1CCN(CC(=O)O)CCN(CC(=O)O)CC1)[C@@H](C)O)C(C)C)C(=O)O [[^68Ga]Ga-1, metal not drawn]
		-3.51 ± 0.22	CC(C)C[C@H](NC(=O)CCOCCOCCOCCOCCOCCOCCNC(=O)CC[C@H](C(=O)O)N1CCN(CC(=O)O)CCN(CC(=O)O)CC1)C(=O)N[C@@H](C)C(=O)N[C@@H](CCCNC(=N)N)C(=O)N[C@@H](CC(C)C)C(=O)N[C@@H](CC(C)C)C(=O)N[C@H](C(=O)O)[C@@H](C)O [[^68Ga]Ga-2, metal not drawn]
8080 ± 307 min	-3.92 ± 0.09		CC[C@H](C)[C@H](NC(=O)[C@@H]1CCCN1C(=O)[C@H](Cc1ccc(O)cc1)NC(=O)[C@H](CO)NC(=O)CCOCCOCCOCCOCCOCCOCCNC(=O)CC[C@H](C(=O)O)N1CCN(CC(=O)O)CCN(CC(=O)O)CC1)C(=O)N1CCC[C@H]1C(=O)N[C@@H](CC(=O)O)C(=O)N[C@H](C(=O)O)[C@@H](C)O [[^68Ga]Ga-3, metal not drawn] ({X1-PEG6}-SYPIPDT-OH; C-terminus assumed)
2430 ± 38.7 min	-4.01 ± 0.13		C[C@@H](O)[C@H](NC(=O)[C@H](CCC(N)=O)NC(=O)[C@H](CC(=O)O)NC(=O)[C@H](CO)NC(=O)[C@@H](NC(=O)[C@H](Cc1c[nH]cn1)NC(=O)CCOCCOCCOCCOCCOCCOCCNC(=O)CC[C@H](C(=O)O)N1CCN(CC(=O)O)CCN(CC(=O)O)CC1)[C@@H](C)O)C(=O)N[C@@H](CC(N)=O)C(=O)O [[^68Ga]Ga-4, metal not drawn] ({X1-PEG6}-HTSDQTN-OH)
	-3.91 ± 0.06		N=C(N)NCCC[C@H](NC(=O)[C@@H](N)CCC(N)=O)C(=O)N[C@@H](Cc1c[nH]cn1)C(=O)N[C@@H](CCCCN)C(=O)N1CCC[C@H]1C(=O)N[C@@H](CCCNC(=N)N)C(=O)N[C@@H](CCC(=O)O)C(=O)NCCOCCOCCOCCOCCOCCOCCC(=O)N[C@@H](CCCCNC(=O)CC[C@H](C(=O)O)N1CCN(CC(=O)O)CCN(CC(=O)O)CC1)C(N)=O [[^68Ga]Ga-5, metal not drawn] (H-QRHKPRE[PEG6]K(X1)-NH2)
1060 ± 43 min	-3.86 ± 0.11		CC(C)C[C@H](NC(=O)[C@H](Cc1c[nH]c2ccccc12)NC(=O)[C@H](Cc1ccccc1)NC(=O)[C@H](CCC(N)=O)NC(=O)[C@H](C)NC(=O)[C@H](CO)NC(=O)[C@H](CC(=O)O)NC(=O)[C@@H]1CCCN1C(=O)[C@H](CCCNC(=N)N)NC(=O)[C@@H](N)CC(N)=O)C(=O)N[C@@H](Cc1c[nH]cn1)C(=O)N[C@@H](Cc1c[nH]cn1)C(=O)NCCOCCOCCOCCOCCOCCOCCC(=O)N[C@@H](CCCCNC(=O)CC[C@H](C(=O)O)N1CCN(CC(=O)O)CCN(CC(=O)O)CC1)C(N)=O [[^68Ga]Ga-6, metal not drawn] (H-NRPDSAQFWLHH[PEG6]K(X1)-NH2)
66.4 ± 3 min	-3.03 ± 0.2		CSCC[C@H](NC(=O)[C@@H]1CCCN1C(=O)[C@@H](N)Cc1ccccc1)C(=O)N[C@@H](Cc1ccccc1)C(=O)N[C@@H](CC(N)=O)C(=O)N[C@@H](Cc1c[nH]cn1)C(=O)N[C@@H](Cc1c[nH]c2ccccc12)C(=O)N[C@@H](CCC(=O)O)C(=O)N[C@@H](CCC(N)=O)C(=O)N[C@@H](Cc1c[nH]c2ccccc12)C(=O)N1CCC[C@H]1C(=O)N1CCC[C@H]1C(=O)NCCOCCOCCOCCOCCOCCOCCC(=O)N[C@@H](CCCCNC(=O)CC[C@H](C(=O)O)N1CCN(CC(=O)O)CCN(CC(=O)O)CC1)C(N)=O [[^68Ga]Ga-7, metal not drawn] (H-FPMFNHWEQWPP[PEG6]K(X1)-NH2)
		-3.16 ± 0.11	CSCC[C@H](NC(=O)[C@@H]1CSSC[C@H](NC(=O)[C@@H](N)CCC(=O)O)C(=O)N2CCC[C@H]2C(=O)N[C@@H](CC(C)C)C(=O)N[C@@H](CO)C(=O)N[C@@H](Cc2c[nH]cn2)C(=O)N[C@@H](CC(=O)O)C(=O)NCC(=O)N[C@@H](Cc2ccc(O)cc2)C(=O)N[C@@H](CS)C(=O)N[C@@H](CC(C)C)C(=O)N[C@@H](Cc2c[nH]cn2)C(=O)N[C@@H](CC(=O)O)C(=O)NCC(=O)N[C@@H](C(C)C)C(=O)N1)C(=O)NCCOCCOCCOCCOCCOCCOCCC(=O)N[C@@H](CCCCNC(=O)CC[C@H](C(=O)O)N1CCN(CC(=O)O)CCN(CC(=O)O)CC1)C(N)=O [[^68Ga]Ga-8, metal not drawn] (H-ECPLSHDGYCLHDGVCM[PEG6]K(X1)-NH2; disulfide 2-16)
		-2.93 ± 0.08	CC[C@H](C)[C@@H]1NC(=O)[C@H](Cc2ccc(O)cc2)NC(=O)[C@H](CCSC)NC(=O)[C@H](CS)NC(=O)[C@H](C(C)C)NC(=O)CNC(=O)[C@H](CC(=O)O)NC(=O)[C@H](Cc2c[nH]cn2)NC(=O)[C@H](CC(C)C)NC(=O)[C@@H](NC(=O)[C@@H](N)Cc2ccc(O)cc2)CSSC[C@@H](C(=O)N[C@@H](CC(N)=O)C(=O)NCCOCCOCCOCCOCCOCCOCCC(=O)N[C@@H](CCCCNC(=O)CC[C@H](C(=O)O)N2CCN(CC(=O)O)CCN(CC(=O)O)CC2)C(N)=O)NC(=O)[C@H](C)NC(=O)[C@H](Cc2ccc(O)cc2)NC(=O)[C@H](CCCCN)NC(=O)[C@H](CC(=O)O)NC(=O)[C@H](CC(C)C)NC(=O)[C@H](C)NC(=O)[C@H](CCC(=O)O)NC1=O [[^68Ga]Ga-9, metal not drawn] (H-YCLHDGVCMYIEALDKYACN[PEG6]K(X1)-NH2; disulfide 2-19; N-terminus assumed)
702 ± 42.2 min	-3.92 ± 0.09		CC[C@H](C)[C@@H]1NC(=O)[C@H](Cc2ccc(O)cc2)NC(=O)CNC(=O)[C@H](C(C)C)NC(=O)[C@H](C(C)C)NC(=O)[C@@H](NC(=O)[C@@H](N)CC(N)=O)CSSC[C@@H](C(=O)N[C@@H](CCC(N)=O)C(=O)NCCOCCOCCOCCOCCOCCOCCC(=O)N[C@@H](CCCCNC(=O)CC[C@H](C(=O)O)N2CCN(CC(=O)O)CCN(CC(=O)O)CC2)C(N)=O)NC(=O)[C@H](CCCNC(=N)N)NC(=O)[C@H](CCC(=O)O)NC(=O)CNC1=O [[^68Ga]Ga-10, metal not drawn] (H-NCVVGYIGERCQ[PEG6]K(X1)-NH2; disulfide 2-11)
562 ± 6.9 min	-3.98 ± 0.06		C[C@H](NC(=O)[C@H](CCC(=O)O)NC(=O)[C@H](Cc1ccc(O)cc1)NC(=O)[C@H](CC(=O)O)NC(=O)[C@H](Cc1ccc(O)cc1)NC(=O)[C@H](Cc1ccccc1)NC(=O)CNC(=O)[C@@H]1CCCN1C(=O)CNC(=O)[C@H](CC(N)=O)NC(=O)[C@H](CCC(=O)O)NC(=O)CNC(=O)[C@H](CO)NC(=O)[C@@H](N)Cc1c[nH]c2ccccc12)C(=O)NCCOCCOCCOCCOCCOCCOCCC(=O)N[C@@H](CCCCNC(=O)CC[C@H](C(=O)O)N1CCN(CC(=O)O)CCN(CC(=O)O)CC1)C(N)=O [[^68Ga]Ga-11, metal not drawn] (H-WSGENGPGFYDYEA[PEG6]K(X1)-NH2)
